Reference: paper PMC9395446, “First-in-human phase 1/1b study to evaluate sitravatinib in patients with advanced solid tumors” (Investigational New Drugs, 2022)
“And” between values parts separate entries of the source, which are not always exact repeats. Identical values can stand only once. Like-named read-outs stand apart in the source and are kept apart here.

Assay: Plasma pharmacokinetics after single and multiple oral doses (noncompartmental analysis)
Assay type: in vivo, human
Details: for Cmax / Tmax / AUC / AUC(0-t) / AUC(0-inf) / Vd/F / half-life: human, plasma; for AUC(0-t): read-out: AUClast, geometric mean (CV%); for AUC(0-inf): read-out: AUC∞, geometric mean (CV%); for Vd/F: read-out: Vz/F, geometric mean (CV%)
Procedure: In the PK lead-in period, patients received a single oral dose of sitravatinib (10–200 mg) under fasted conditions with at least 200 mL of water, followed by PK sample collection for 3–7 days, depending on emerging PK information. After the PK lead-in period, patients commenced the daily regimen planned for their cohort. Blood samples were collected pre-dose and 0.5 (for 10 mg only), 1, 2, 4, 6, 8, 12, 24, 36, 48, 72 and 168 (for 20–200 mg dose levels) h post-dose from patients following a single oral dose, and at pre-dose, 0.5, 1, 2, 4, 6, 8, 12 and 24 h post-dose following multiple oral doses for the 10–200 mg levels.
PK samples were collected after a single dose during the PK lead-in period and following multiple oral doses during the study. Plasma PK samples were assayed for quantification of sitravatinib. The lower limit of quantification was 0.05 ng/mL. PK parameters were determined using a noncompartmental analysis approach including maximum (peak) concentration (Cmax), time to reach Cmax following drug administration (tmax), area under the plasma concentration–time curves (AUCs), apparent total clearance of the drug from plasma after oral administration, apparent volume of distribution during the terminal phase after administration and terminal elimination half-life (t1/2). PD effects were examined by analyzing VEGF-A ligand and soluble (s)-VEGF-R2 levels in patients’ plasma samples collected before and after sitravatinib administration.

[1] = 200 mg QD, Cycle 1 Day 15, single patient result

For `COCCNCc1ccc(-c2cc3nccc(Oc4ccc(NC(=O)C5(C(=O)Nc6ccc(F)cc6)CC5)cc4F)c3s2)nc1` [sitravatinib, Sitravatinib], the “CL/F at steady state, geometric mean (CV%)” value (“CL/F at steady state … (CV%)” for short) (10 mg QD, Cycle 1 Day 8) was 42.5 (42.8); 2 L/h, the “Cav,ss, geometric mean (CV%)” value (10 mg QD, Cycle 1 Day 8) was 9.81 (42.8); 2 ng/mL and the “CL/F at steady state … (CV%)” value (20 mg QD, Cycle 1 Day 15) was 41.2 (6.4); 3 L/h. For the same molecule, the “Cav,ss, geometric mean (CV%)” value (20 mg QD, Cycle 1 Day 15) was 20.2 (6.4); 3 ng/mL, the “CL/F at steady state … (CV%)” value (40 mg QD, Cycle 1 Day 15) was 64.6 (156.5); 5 L/h and the “Cav,ss, geometric mean (CV%)” value (40 mg QD, Cycle 1 Day 15) was 25.8 (156.5); 5 ng/mL. The “CL/F at steady state … (CV%)” value (80 mg QD, Cycle 1 Day 15) was 65.7 (104.9); 5 L/h, the “Cav,ss, geometric mean (CV%)” value (80 mg QD, Cycle 1 Day 15) was 50.7 (104.9); 5 ng/mL and the “CL/F at steady state … (CV%)” value (110 mg QD, Cycle 1 Day 15) was 48.9 (44.5); 3 L/h. The “Cav,ss, geometric mean (CV%)” value (110 mg QD, Cycle 1 Day 15) was 93.7 (44.5); 3 ng/mL, the “Interpatient variability for Cmax and AUCτ,ss” value (120 mg QD) was ~ 60% and the “CL/F at steady state … (CV%)” value (120 mg QD, Cycle 1 Day 15) was 75.0 (59.1); 3 L/h. For the same molecule, the “Cav,ss, geometric mean (CV%)” value (120 mg QD, Cycle 1 Day 15) was 66.7 (59.1); 3 ng/mL, the “CL/F at steady state … (CV%)” value (150 mg QD, Cycle 1 Day 15) was 68.8 (46.5); 18 L/h and the “Cav,ss, geometric mean (CV%)” value (150 mg QD, Cycle 1 Day 15) was 90.9 (46.5); 18 ng/mL. The “CL/F at steady state” value [1] was 48.4 (NA); 1 L/h, the “Cav,ss” value [1] was 172 (NA); 1 ng/mL and the “Time by which steady-state appeared to be reached” value (QD dosing) was “cycle 1 day 8”. For the same molecule, the Cmax (oral, 10 mg, 10 mg QD, Cycle 1 Day 8, read-out: Cmax,ss, geometric mean (CV%)) was 11.4 ng/mL, the Tmax (oral, 10 mg, 10 mg QD, Cycle 1 Day 8, read-out: tmax,ss, median (min–max)) was 2 h and the Cmax (oral, 10 mg, single dose 10 mg, read-out: Cmax, geometric mean (CV%)) was 3.54 ng/mL. For the same molecule, the Tmax (oral, 10 mg, single dose 10 mg, read-out: tmax, median (min–max)) was 5.03 h, the Cmax (oral, 20 mg, 20 mg QD, Cycle 1 Day 15, read-out: Cmax,ss, geometric mean (CV%)) was 23.7 ng/mL and the Tmax (oral, 20 mg, 20 mg QD, Cycle 1 Day 15, read-out: tmax,ss, median (min–max)) was 8.13 h. For the same molecule, the Cmax (oral, 20 mg, single dose 20 mg, read-out: Cmax, geometric mean (CV%)) was 5.71 ng/mL, the Tmax (oral, 20 mg, single dose 20 mg, read-out: tmax, median (min–max)) was 8.04 h and the Cmax (oral, 40 mg, 40 mg QD, Cycle 1 Day 15, read-out: Cmax,ss, geometric mean (CV%)) was 32.5 ng/mL. It also gave a Tmax (oral, 40 mg, 40 mg QD, Cycle 1 Day 15, read-out: tmax,ss, median (min–max)) of 4 h, a Cmax (oral, 40 mg, single dose 40 mg, read-out: Cmax, geometric mean (CV%)) of 11.8 ng/mL and a Tmax (oral, 40 mg, single dose 40 mg, read-out: tmax, median (min–max)) of 4.05 h. The Cmax (oral, 80 mg, 80 mg QD, Cycle 1 Day 15, read-out: Cmax,ss, geometric mean (CV%)) was 69.2 ng/mL, the Tmax (oral, 80 mg, 80 mg QD, Cycle 1 Day 15, read-out: tmax,ss, median (min–max)) was 4.01 h and the Cmax (oral, 80 mg, single dose 80 mg, read-out: Cmax, geometric mean (CV%)) was 31.7 ng/mL. For the same molecule, the Tmax (oral, 80 mg, single dose 80 mg, read-out: tmax, median (min–max)) was 6 h, the Cmax (oral, 110 mg, 110 mg QD, Cycle 1 Day 15, read-out: Cmax,ss, geometric mean (CV%)) was 119 ng/mL and the Tmax (oral, 110 mg, 110 mg QD, Cycle 1 Day 15, read-out: tmax,ss, median (min–max)) was 2 h. The Cmax (oral, 110 mg, single dose 110 mg, read-out: Cmax, geometric mean (CV%)) was 49.1 ng/mL, the Tmax (oral, 110 mg, single dose 110 mg, read-out: tmax, median (min–max)) was 3.02 h and the Cmax (oral, 120 mg, 120 mg QD, Cycle 1 Day 15, read-out: Cmax,ss, geometric mean (CV%)) was 80.4 ng/mL. It also gave a Tmax (oral, 120 mg, 120 mg QD, Cycle 1 Day 15, read-out: tmax,ss, median (min–max)) of 4 h, a Cmax (oral, 120 mg, single dose 120 mg, read-out: Cmax, geometric mean (CV%)) of 23.8 ng/mL and a Tmax (oral, 120 mg, single dose 120 mg, read-out: tmax, median (min–max)) of 8.87 h. The Cmax (oral, 150 mg, 150 mg QD, Cycle 1 Day 15, read-out: Cmax,ss, geometric mean (CV%)) was 114 ng/mL, the Tmax (oral, 150 mg, 150 mg QD, Cycle 1 Day 15, read-out: tmax,ss, median (min–max)) was 7.83 h and the Cmax (oral, 150 mg, single dose 150 mg, read-out: Cmax, geometric mean (CV%)) was 69.3 ng/mL. For the same molecule, the Tmax (oral, 150 mg, single dose 150 mg, read-out: tmax, median (min–max)) was 6 h, the Cmax (oral, 200 mg, 200 mg QD, Cycle 1 Day 15, single patient result, read-out: Cmax,ss) was 221 ng/mL and the Tmax (oral, 200 mg, 200 mg QD, Cycle 1 Day 15, single patient result, read-out: tmax,ss, median (min–max)) was 10 h. It also gave a Cmax (oral, 200 mg, single dose 200 mg, read-out: Cmax, geometric mean (CV%)) of 85 ng/mL, a Tmax (oral, 200 mg, single dose 200 mg, read-out: tmax, median (min–max)) of 5.94 h and an AUC (oral, 10 mg QD, Cycle 1 Day 8, read-out: AUCτ,ss, geometric mean (CV%)) of 235 ng·h/mL. For the same molecule, the AUC (oral, 20 mg QD, Cycle 1 Day 15, read-out: AUCτ,ss, geometric mean (CV%)) was 486 ng·h/mL, the AUC (oral, 40 mg QD, Cycle 1 Day 15, read-out: AUCτ,ss, geometric mean (CV%)) was 619 ng·h/mL and the AUC (oral, 80 mg QD, Cycle 1 Day 15, read-out: AUCτ,ss, geometric mean (CV%)) was 1220 ng·h/mL. For the same molecule, the AUC (oral, 110 mg QD, Cycle 1 Day 15, read-out: AUCτ,ss, geometric mean (CV%)) was 2250 ng·h/mL, the AUC (oral, 120 mg QD, Cycle 1 Day 15, read-out: AUCτ,ss, geometric mean (CV%)) was 1600 ng·h/mL and the AUC (oral, 150 mg QD, Cycle 1 Day 15, read-out: AUCτ,ss, geometric mean (CV%)) was 2180 ng·h/mL. For the same molecule, the AUC (oral, 200 mg QD, Cycle 1 Day 15, single patient result, read-out: AUCτ,ss) was 4130 ng·h/mL, the AUC(0-t) (oral, single dose 10 mg) was 149 ng·h/mL and the AUC(0-inf) (oral, single dose 10 mg) was 165 ng·h/mL. For the same molecule, the Vd/F (oral, single dose 10 mg) was 3720 L, the half-life (oral, single dose 10 mg, read-out: t1/2, arithmetic mean (CV%) (converted)) was 2620 min and the AUC(0-t) (oral, single dose 20 mg) was 300 ng·h/mL. The AUC(0-inf) (oral, single dose 20 mg) was 501 ng·h/mL, the Vd/F (oral, single dose 20 mg) was 2500 L and the half-life (oral, single dose 20 mg, read-out: t1/2, arithmetic mean (CV%) (converted)) was 2820 min. For the same molecule, the AUC(0-t) (oral, single dose 40 mg) was 509 ng·h/mL, the AUC(0-inf) (oral, single dose 40 mg) was 478 ng·h/mL and the Vd/F (oral, single dose 40 mg) was 5610 L. It also gave a half-life (oral, single dose 40 mg, read-out: t1/2, arithmetic mean (CV%) (converted)) of 2790 min, an AUC(0-t) (oral, single dose 80 mg) of 1430 ng·h/mL and an AUC(0-inf) (oral, single dose 80 mg) of 1540 ng·h/mL. It also gave a Vd/F (oral, single dose 80 mg) of 3360 L, a half-life (oral, single dose 80 mg, read-out: t1/2, arithmetic mean (CV%) (converted)) of 2770 min and an AUC(0-t) (oral, single dose 110 mg) of 2030 ng·h/mL. It also gave an AUC(0-inf) (oral, single dose 110 mg) of 2920 ng·h/mL, a Vd/F (oral, single dose 110 mg) of 2410 L and a half-life (oral, single dose 110 mg, read-out: t1/2, arithmetic mean (CV%) (converted)) of 2680 min. For the same molecule, the AUC(0-t) (oral, single dose 120 mg) was 1210 ng·h/mL, the AUC(0-inf) (oral, single dose 120 mg) was 1320 ng·h/mL and the Vd/F (oral, single dose 120 mg) was 6370 L. It also gave a half-life (oral, single dose 120 mg, read-out: t1/2, arithmetic mean (CV%) (converted)) of 2960 min, an AUC(0-t) (oral, single dose 150 mg) of 2940 ng·h/mL and an AUC(0-inf) (oral, single dose 150 mg) of 3560 ng·h/mL. The Vd/F (oral, single dose 150 mg) was 2510 L, the half-life (oral, single dose 150 mg, read-out: t1/2, arithmetic mean (CV%) (converted)) was 2530 min and the AUC(0-t) (oral, single dose 200 mg) was 3300 ng·h/mL. For the same molecule, the AUC(0-inf) (oral, single dose 200 mg) was 4000 ng·h/mL, the Vd/F (oral, single dose 200 mg) was 3660 L and the half-life (oral, single dose 200 mg, read-out: t1/2, arithmetic mean (CV%) (converted)) was 3090 min. It also gave a Tmax (po, multiple oral 10–150 mg QD, fasting, read-out: Median tmax,ss, range across dose levels) of 2 to 8.13 h, a Tmax (po, single oral 10–200 mg, fasting, read-out: Median tmax, range across dose levels) of 3.02 to 8.87 h and a half-life (single oral 10–200 mg, fasting, read-out: Arithmetic mean terminal elimination t1/2, range across dose levels) of 2530 to 3090 min. For the same molecule, the “AUCτ,ss accumulation ratio, range” value (multiple QD doses) was 2.13–8.34, the “Cmax,ss accumulation ratio, range” value (multiple QD doses) was 1.82–6.89 and the “Dose proportionality of exposure (Cmax and AUCs)” value (single and multiple doses 10–200 mg, power model) was “approximately dose-proportional”. The “CL/F, geometric mean (CV%)” value (single dose 10 mg) was 60.5 (58.3); 3 L/h, the “CL/F, geometric mean (CV%)” value (single dose 20 mg) was 39.9 (63.4); 3 L/h and the “CL/F, geometric mean (CV%)” value (single dose 40 mg) was 83.7 (194.6); 4 L/h. The “CL/F, geometric mean (CV%)” value (single dose 80 mg) was 52.0 (104.1); 7 L/h, the “CL/F, geometric mean (CV%)” value (single dose 110 mg) was 37.6 (61.0); 3 L/h and the “CL/F, geometric mean (CV%)” value (single dose 120 mg) was 91.2 (109.5); 4 L/h. For the same molecule, the “CL/F, geometric mean (CV%)” value (single dose 150 mg) was 42.1 (63.7); 12 L/h, the “CL/F, geometric mean (CV%)” value (single dose 200 mg) was 50.0 (126.1); 3 L/h and the “Peak to trough ratio (PTR) in plasma at steady state” value (steady state) was 1.5–2.1 fold and 1.5- to 2.1 fold.
